ChEMBL document CHEMBL3826911, “Rational design and synthesis of novel anti-prostate cancer agents bearing a 3,5-bis-trifluoromethylphenyl moiety” (Bioorg Med Chem Lett, 2016)

Columns and labels:
[1] = test system: CWR22R; experiment: Antiproliferative activity against human 22Rv1 cells assessed as reduction in cell viability after 96 hrs by propidium iodide staining based fluorescence assay; assay type: functional; details: Homo sapiens, 22Rv1, 96 h; read-out: IC50
[2] = Antiproliferative activity against human DU145 cells assessed as reduction in cell viability after 96 hrs by propidium iodide staining based fluorescence assay; assay type: functional, DU-145; details: Homo sapiens, DU-145, 96 h; read-out: IC50
[3] = test system: LNCaP; experiment: Antiproliferative activity against human LNCAP cells assessed as reduction in cell viability after 96 hrs by propidium iodide staining based fluorescence assay; assay type: functional; details: Homo sapiens, LNCaP, 96 h; read-out: IC50
[4] = Antiproliferative activity against human VCaP cells assessed as reduction in cell viability after 96 hrs by propidium iodide staining based fluorescence assay; assay type: functional; details: Homo sapiens, VCaP, 96 h; read-out: IC50
[5] = test system: HepG2; experiment: Cytotoxicity against human HepG2 cells assessed as cell viability after 72 hrs by MTT assay; assay type: functional, cell-based
[6] = target: Albumin (Homo sapiens, UniProt P02768); experiment: Binding affinity to human serum albumin at 5 uM by equilibrium dialysis based LC-MS/MS analysis; assay type: ADME; details: read-out: PB (converted)
[7] = target: hERG (KCNH2) (Homo sapiens, UniProt Q12809); experiment: Inhibition of human ERG transfected in CHO cells assessed as blockade of tail current at 25 uM by patch clamp assay; assay type: cell-based; details: CHO cells transfected with human ERG
[8] = test system: Liver microsome; experiment: Metabolic stability in human liver microsomes at 3 uM in presence of NADPH by LC-MS/MS analysis; assay type: ADME
[9] = Half life in human liver microsomes at 3 uM in presence of NADPH by LC-MS/MS analysis; assay type: ADME
[10] = Intrinsic clearance in human liver microsomes assessed per mg of protein at 3 uM in presence of NADPH by LC-MS/MS analysis; assay type: ADME; details: read-out: CLH
[11] = Protein binding in human plasma by equilibrium dialysis method; assay type: ADME, cell-free; details: read-out: PPB (converted)
[12] = target: T1, Androgen receptor (Homo sapiens, UniProt P10275); assay type: cell-based, GripTite-293
T1 sequence (P10275 whole entry): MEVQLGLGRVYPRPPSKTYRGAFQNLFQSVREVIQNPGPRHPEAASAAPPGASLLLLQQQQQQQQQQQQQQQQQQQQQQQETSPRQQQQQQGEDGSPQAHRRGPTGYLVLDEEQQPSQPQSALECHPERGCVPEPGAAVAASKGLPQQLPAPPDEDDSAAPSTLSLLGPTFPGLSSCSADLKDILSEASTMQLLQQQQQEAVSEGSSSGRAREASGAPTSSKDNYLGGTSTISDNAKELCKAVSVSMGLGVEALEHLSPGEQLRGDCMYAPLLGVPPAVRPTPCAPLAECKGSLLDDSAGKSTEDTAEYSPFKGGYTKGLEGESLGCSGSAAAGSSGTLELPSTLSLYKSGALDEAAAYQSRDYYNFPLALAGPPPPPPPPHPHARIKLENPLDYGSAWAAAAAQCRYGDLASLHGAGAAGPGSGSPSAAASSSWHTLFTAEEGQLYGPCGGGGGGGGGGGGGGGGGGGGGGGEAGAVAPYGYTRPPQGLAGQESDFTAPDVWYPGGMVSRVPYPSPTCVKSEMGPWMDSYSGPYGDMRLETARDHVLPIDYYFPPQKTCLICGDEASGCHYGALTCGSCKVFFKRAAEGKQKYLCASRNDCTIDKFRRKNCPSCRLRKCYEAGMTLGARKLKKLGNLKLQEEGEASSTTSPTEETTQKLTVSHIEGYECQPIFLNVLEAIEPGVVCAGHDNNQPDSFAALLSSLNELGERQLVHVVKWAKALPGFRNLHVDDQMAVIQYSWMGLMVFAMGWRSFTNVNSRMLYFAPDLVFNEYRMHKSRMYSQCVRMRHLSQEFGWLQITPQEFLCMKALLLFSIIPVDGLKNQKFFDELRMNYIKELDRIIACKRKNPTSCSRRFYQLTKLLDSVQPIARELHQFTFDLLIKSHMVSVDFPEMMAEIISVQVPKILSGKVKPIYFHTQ
Description: Antagonist activity at GAL4 DBD-fused androgen receptor LBD (unknown origin) transfected in UAS-bla GripTite 293 cells assessed as inhibition of R1881-induced receptor activation after 16 to 24 hrs by beta-lactamase reporter gene assay

[13] = target: T2, Androgen receptor (Homo sapiens) (UniProt P10275); details: GripTite-293, at 10 µM
T2 sequence (whole entry): T1 sequence (P10275 whole entry)

hERG (KCNH2), sequence (Q12809 whole entry): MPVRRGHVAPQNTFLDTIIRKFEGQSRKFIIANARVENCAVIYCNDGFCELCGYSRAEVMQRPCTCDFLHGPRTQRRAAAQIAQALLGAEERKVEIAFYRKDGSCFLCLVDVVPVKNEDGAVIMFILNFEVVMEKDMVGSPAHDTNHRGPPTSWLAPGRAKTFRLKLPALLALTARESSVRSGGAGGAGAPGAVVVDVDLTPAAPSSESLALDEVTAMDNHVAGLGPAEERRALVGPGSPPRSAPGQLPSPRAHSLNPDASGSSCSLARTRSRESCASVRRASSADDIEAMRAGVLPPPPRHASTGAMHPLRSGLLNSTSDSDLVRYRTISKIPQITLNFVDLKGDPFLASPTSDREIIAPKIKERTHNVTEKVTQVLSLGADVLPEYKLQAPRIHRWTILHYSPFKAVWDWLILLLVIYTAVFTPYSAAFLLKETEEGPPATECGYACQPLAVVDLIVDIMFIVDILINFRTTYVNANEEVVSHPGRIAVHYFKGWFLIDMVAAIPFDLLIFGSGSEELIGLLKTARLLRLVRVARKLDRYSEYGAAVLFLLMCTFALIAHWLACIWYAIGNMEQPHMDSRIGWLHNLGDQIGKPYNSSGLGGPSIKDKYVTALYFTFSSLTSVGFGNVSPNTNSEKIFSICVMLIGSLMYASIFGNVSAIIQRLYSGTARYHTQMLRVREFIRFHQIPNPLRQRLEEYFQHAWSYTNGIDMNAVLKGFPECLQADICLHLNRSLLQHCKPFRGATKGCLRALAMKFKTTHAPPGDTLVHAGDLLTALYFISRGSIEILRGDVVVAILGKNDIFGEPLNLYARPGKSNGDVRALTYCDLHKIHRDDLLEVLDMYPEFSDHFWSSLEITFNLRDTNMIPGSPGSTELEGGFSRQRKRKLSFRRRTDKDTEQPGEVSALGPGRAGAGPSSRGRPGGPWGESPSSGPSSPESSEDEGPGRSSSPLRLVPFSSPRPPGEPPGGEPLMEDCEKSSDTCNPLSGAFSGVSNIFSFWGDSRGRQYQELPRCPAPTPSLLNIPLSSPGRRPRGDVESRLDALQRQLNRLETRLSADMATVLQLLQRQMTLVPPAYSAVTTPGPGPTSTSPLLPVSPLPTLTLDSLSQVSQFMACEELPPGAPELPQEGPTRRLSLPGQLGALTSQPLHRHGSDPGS
Albumin, sequence (P02768 whole entry): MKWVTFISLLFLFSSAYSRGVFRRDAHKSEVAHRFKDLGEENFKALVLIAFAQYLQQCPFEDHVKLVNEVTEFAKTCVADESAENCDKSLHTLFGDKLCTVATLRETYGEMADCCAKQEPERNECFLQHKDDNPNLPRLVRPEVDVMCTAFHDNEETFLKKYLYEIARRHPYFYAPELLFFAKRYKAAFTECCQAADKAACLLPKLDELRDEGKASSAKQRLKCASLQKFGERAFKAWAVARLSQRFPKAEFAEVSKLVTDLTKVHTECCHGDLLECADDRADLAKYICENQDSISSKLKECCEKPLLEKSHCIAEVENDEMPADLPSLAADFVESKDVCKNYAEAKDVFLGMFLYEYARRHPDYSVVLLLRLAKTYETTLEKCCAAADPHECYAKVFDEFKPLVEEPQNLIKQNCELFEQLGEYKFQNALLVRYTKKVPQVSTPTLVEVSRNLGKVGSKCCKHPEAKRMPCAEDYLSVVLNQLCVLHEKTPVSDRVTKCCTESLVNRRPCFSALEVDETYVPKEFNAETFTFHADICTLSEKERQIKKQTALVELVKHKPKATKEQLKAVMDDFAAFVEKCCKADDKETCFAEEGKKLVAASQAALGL

| SMILES | IC50 [1] | IC50 [2] | IC50 [3] | IC50 [4] | Activity [5] | fraction unbound at 5 µM [6] | inhibition at 25 µM [7] | Stability [8] | half-life at 3 µM [9] | microsomal CLint at 3 µM [10] | AC50 ([5]; HepG2, 72 h) | fraction unbound [11] | IC50 [12] | minimal effective concentration ([5]; HepG2, 72 h, read-out: MEC) | inhibition [13] |
| --- | --- | --- | --- | --- | --- | --- | --- | --- | --- | --- | --- | --- | --- | --- | --- |
| C[C@](O)(CS(=O)(=O)c1cc(C(F)(F)F)cc(C(F)(F)F)c1)C(=O)Nc1ccc(C#N)c(C(F)(F)F)c1 | 2.5 µM | 6.36 µM | 1.99 µM | 4.11 µM | Dose-dependent effect | 0.001 | 29.3% | Stable | – | – | – | – | – | – | – |
| COc1ccc2c(c1)[C@]13CCCC[C@@H]1[C@H](C2)N(C)CC3 [DEXTROMETHORPHAN] | – | – | – | – | – | – | – | – | 1.05 h | 21.9 µL/min/mg | – | – | – | – | – |
| C[C@](O)(CS(=O)(=O)c1ccc(F)cc1)C(=O)Nc1ccc(C#N)c(C(F)(F)F)c1 [(R)-BICALUTAMIDE] | 46.2 µM | 45.4 µM | – | 51.6 µM | – | – | – | – | 3.57 h | – | 54.3 µM | 0.04 | – | – | – |
| CC(O)(CS(=O)(=O)c1cc(C(F)(F)F)cc(C(F)(F)F)c1)C(=O)Nc1ccc([N+](=O)[O-])c(C(F)(F)F)c1 (configuration not stated) | 2.15 µM | 5.26 µM | 2.1 µM | 3.3 µM | – | – | – | – | 9.45 h | – | 9.01 µM | – | 3.1 µM | 3.6 µM | 93% |
| CC(O)(CSc1cc(C(F)(F)F)cc(C(F)(F)F)c1)C(=O)Nc1ccc([N+](=O)[O-])c(C(F)(F)F)c1 (configuration not stated) | 1.5 µM | 2.78 µM | 1.5 µM | 1.53 µM | Dose-dependent effect | – | – | – | – | – | – | – | 0.71 µM | – | 90% |
